Test [1] concerns the target T1, CPB2.8ΔCTE (Leishmania mexicana, UniProt P36400).
T1 construct: Wild-type recombinant CPB without the C-terminal extention (i.e. CPB2.8ΔCTE); Dr. Jeremy Mottram (Wellcome Centre for Molecular Parasitology, University of Glasgow)
As to the kind of experiment: Leishmania mexicana cysteine protease B (CPB) peptidase activity assay (Ki). Format: biochemical. The following applies: Ki, inhibitors of Leismania mexicana CPB protease. The method, then:
Unless otherwise stated, all general chemicals and biochemicals were purchased from either the Sigma Chemical Company, Poole, Dorset, U.K or from Fisher Scientific UK, Loughborough, Leicestershire, U.K. Absorbance assays were carried out in flat-bottomed 96-well plates (Spectra; Greiner Bio-One Ltd., Stonehouse, Gloucestershire, U.K.) using a SpectraMax PLUS384 plate reader (Molecular Devices, Crawley, U.K.). Fluorescence high throughput assays were carried out in either 384-well microtitre plates (Corning Costar 3705 plates, Fisher Scientific) or 96-well ‘U’ bottomed Microfluor W1 microtitre plates (Thermo Labsystems, Ashford, Middlesex, U.K.). Fluorescence assays were monitored using a SpectraMax Gemini fluorescence plate reader (Molecular Devices). For substrates employing either a 7-amino-4-methylcoumarin (AMC) or a 7-amino-4-trifluoromethylcoumarin (AFC) fluorophore, assays were monitored at an excitation wavelength of 365 nm and an emission wavelength of 450 nm and the fluorescence plate reader calibrated with AMC. For substrates employing a 3-amino-benzoyl (Abz) fluorophore, assays were monitored at an excitation wavelength of 310 nm and an emission wavelength of 445 nm; the fluorescence plate reader calibrated with 3-amino-benzamide (Fluka). Unless otherwise indicated, all the peptidase substrates were purchased from Bachem UK, St Helens, Merseyside, UK. Substrates utilizing fluorescence resonance energy transfer methodology (i.e. FRET-based substrates) were synthesized at Incenta Limited using published methods (Atherton & Sheppard, Solid Phase Peptide Synthesis, IRL Press, Oxford, U.K, 1989) and employed Abz (2-aminobenzoyl) as the fluorescence donor and 3-nitro-tyrosine [Tyr(NO2)] as the fluorescence quencher (Meldal, M. and Breddam, K., Anal. Biochem, 195, 141-147, 1991). Hydroxyethylpiperazine ethanesulfonate (HEPES), tris-hydroxylmethyl aminomethane (tris) base, bis-tris-propane and all the biological detergents (e.g. CHAPS, zwittergents, etc.) were purchased from CN Biosciences UK, Beeston, Nottinghamshire, U.K. Glycerol was purchased from Amersham Pharmacia Biotech, Little Chalfont, Buckinghamshire, U.K. Stock solutions of substrate or inhibitor were made up to 10 mM in 100% dimethylsulfoxide (DMSO) (Rathburns, Glasgow, U.K.) and diluted as appropriately required. In all cases the DMSO concentration in the assays was maintained at less than 1% (vol./vol.).
Assay protocols were based on literature precedent (Table 4; Barrett, A. J., Rawlings, N. D. and Woessner, J. F., 1998, Handbook of Proteolytic Enzymes, Academic Press, London and references therein) and modified as required to suit local assay protocols. Enzyme was added as required to initiate the reaction and the activity, as judged by the change in fluorescence upon conversion of substrate to product, was monitored over time. All assays were carried out at 25±1° C.
Wild-type recombinant CPB without the C-terminal extention (i.e. CPB2.8ΔCTE; Sanderson, S. J., et. al., Biochem. J., 347, 383-388, 2000) was obtained from Dr. Jeremy Mottram (Wellcome Centre for Molecular Parasitology, The Anderson College, University of Glasgow, Glasgow, U.K.). Activity assays were carried out in 100 mM sodium acetate; pH 5.5 containing 1 mM EDTA; 200 mM NaCl and 10 mM DTT (Alves, L. C., et. al., Mol. Biochem. Parasitol, 116, 1-9, 2001) using 0.25 nM enzyme. […] The rate of conversion of substrate to product was derived from the slope of the increase in fluorescence monitored continuously over time.
The apparent inhibition constant (Ki) for each compound was determined on the basis that inhibition was reversible and occurred by a pure-competitive mechanism. The Ki values were calculated, from the dependence of enzyme activity as a function of inhibitor concentration, by direct regression analysis (Prism v 3.02) using Equation 2 (Cornish-Bowden, A., 1995.). [formula]

The target of test [2] is Wild-type cruzipain (Trypanosoma cruzi, UniProt P25779). As to the kind of experiment: Trypanosoma cruzi cruzipain peptidase activity assay (Ki). Format: biochemical. The following applies: read-out: Ki, inhibitors of cruzain and cruzipains. Summed up:
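Native cruzipain from T. cruzi Dm28 epimastigotes, 2.5 nM, in 100 mM sodium phosphate pH 6.75 with 1 mM EDTA and 10 mM L-cysteine, 25 °C, DMSO <1%. Rates taken from continuous fluorogenic substrate read; Ki by regression assuming reversible pure-competitive inhibition.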

In US20060100431A1, “Biologically active compounds” (Amura Therapeutics Limited, priority 2002, published 2006) one finds Ki data, which are given here for 16 molecules.

Molecules are shown by their SMILES.

Wild-type cruzipain, sequence (P25779 whole entry): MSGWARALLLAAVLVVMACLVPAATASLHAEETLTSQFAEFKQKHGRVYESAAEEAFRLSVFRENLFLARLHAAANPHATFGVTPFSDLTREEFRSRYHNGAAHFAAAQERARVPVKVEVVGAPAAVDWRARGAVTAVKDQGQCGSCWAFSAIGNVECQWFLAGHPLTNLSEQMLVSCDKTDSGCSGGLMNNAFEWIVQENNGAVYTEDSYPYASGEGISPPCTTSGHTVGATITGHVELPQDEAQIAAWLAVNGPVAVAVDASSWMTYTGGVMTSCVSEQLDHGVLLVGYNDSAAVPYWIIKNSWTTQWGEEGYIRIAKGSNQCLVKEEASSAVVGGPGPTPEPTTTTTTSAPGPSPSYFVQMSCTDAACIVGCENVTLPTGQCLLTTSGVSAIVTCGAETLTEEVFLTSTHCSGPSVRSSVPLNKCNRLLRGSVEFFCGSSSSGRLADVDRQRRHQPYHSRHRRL
T1 sequence (P36400 126-343, stated change not applied): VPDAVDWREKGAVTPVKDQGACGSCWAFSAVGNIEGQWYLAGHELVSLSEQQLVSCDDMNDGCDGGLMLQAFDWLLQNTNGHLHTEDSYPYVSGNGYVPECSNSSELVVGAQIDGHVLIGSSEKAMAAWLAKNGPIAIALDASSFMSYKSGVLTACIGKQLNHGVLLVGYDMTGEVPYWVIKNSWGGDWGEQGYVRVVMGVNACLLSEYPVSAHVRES

`CC(C)C[C@H](NC(=O)c1ccc(N(C)C)cc1)C(=O)N1CC[C@@H]2[C@H]1C(=O)CN2C(=O)c1cc2ccccc2s1` [Example 100, (3aR,6aS)-N-{(1S)-1-[4-(Benzo[b]thiophene-2-carbonyl)-6-oxo-hexahydro-pyrrolo[3,2-b]pyrrole-1-carbonyl)-3-methyl-butyl}-4-dimethylamino-benzamide]: the Ki in test [1] and in test [2] was < 5 µM in each case.

`CC(C)C[C@H](NC(=O)c1ccc(C(C)(C)C)cc1)C(=O)N1CC[C@@H]2[C@H]1C(=O)CN2C(=O)C1COc2ccccc2O1` (stereo partly drawn) [Example 29, (3aR,6aS)-4-tert-Butyl-N-{(1S)-1-[4-(2,3-dihydrobenzo[1,4]dioxine-2-carbonyl)-6-oxo-hexahydro-pyrrolo[3,2-b]pyrrole-1-carbonyl]-3-methyl-butyl}-benzamide]: the Ki in test [1] and in test [2] was < 5 µM throughout.

Consider `CC(C)C[C@H](NC(=O)c1ccc(N(C)C)cc1)C(=O)N1CC[C@@H]2[C@H]1C(=O)CN2C(=O)c1ccc(C(F)(F)F)cc1` [Example 69, (3aR,6aS)-4-Dimethylamino-N-{(1S)-3-methyl-1-[6-oxo-4-(4 trifluoromethyl-benzoyl)-hexahydro-pyrrolo[3,2-b]pyrrole-1-carbonyl]-butyl}-benzamide], for which the Ki in test [1] and in test [2] was < 5 µM in each case.

For the molecule `CC(C)C[C@H](NC(=O)c1ccc(C(C)(C)C)cc1)C(=O)N1CC[C@@H]2[C@H]1C(=O)CN2C(=O)c1ccc(-n2cncn2)cc1` [Example 26, (3aR,6aS)-4-tert-Butyl-N-{(1S)-3-methyl-1-[6-oxo-4-(4-[1,2,4]triazol-1-yl-benzoyl)-hexahydro-pyrrolo[3,2-b]pyrrole-1-carbonyl]-butyl}-benzamide], the Ki in test [1] and in test [2] was < 5 µM each time.

On to `CC(C)C[C@H](NC(=O)c1ccc(N(C)C)cc1)C(=O)N1CC[C@@H]2[C@H]1C(=O)CN2C(=O)CC1CC1` [Example 132, (3aR,6aS)-N-{(1S)-1-[4-(2-Cyclopropyl-acetyl)-6-oxo-hexahydro-pyrrolo[3,2-b]pyrrole-1-carbonyl]-3-methyl-butyl}-4-dimethylamino-benzamide], for which the Ki in test [1] and in test [2] was < 5 µM each time.

On to `CN[C@@H](CC(C)C)C(=O)N1CC(=O)[C@@H]2[C@H]1CCN2C(=O)[C@H](CC(C)C)NC(=O)c1ccc(N(C)C)cc1` [Example 220, (3aR,6aS)-4-Dimethylamino-N-{(1S)-3-methyl-1-[4-((2S)-4-methyl-2-methylamino-pentanoyl)-6-oxo-hexahydro-pyrrolo[3,2-b]pyrrole-1-carbonyl]-butyl}-benzamide], for which the Ki in test [1] and in test [2] was < 5 µM throughout.

Regarding `CC(C)C[C@H](NC(=O)c1ccc(N(C)C)cc1)C(=O)N1CC[C@@H]2[C@H]1C(=O)CN2C(=O)N1CCOCC1` [Example 142, (3aR,6aS)-4-Dimethylamino-N-{(1S)-3-methyl-1-[4-(morpholin-4-carbonyl)-6-oxo-hexahydro-pyrrolo[3,2-b]pyrrole-1-carbonyl]-butyl}-benzamide], the Ki in test [1] and in test [2] was < 5 µM each time.

Turning to `CC(C)C[C@H](NC(=O)c1ccc(N(C)C)cc1)C(=O)N1OC[C@@H]2[C@H]1C(=O)CN2C(=O)c1ccccc1` [Example 248, (3aS,6aS)-N-[(1S)-1-(4-Benzoyl-6-oxo-hexahydro-2-oxa-1,4-diaza-pentalene-1-carbonyl)-3-methyl-butyl]-4-dimethylamino-benzamide], the Ki in test [1] and in test [2] was < 5 µM each time.

Turning to `CC(=O)N[C@@H](CCC(C)C)C(=O)N1CC(=O)[C@@H]2[C@H]1CCN2C(=O)[C@H](CC(C)C)NC(=O)c1ccc(N(C)C)cc1` [Example 214, (3aR,6aS)-N-{(1S)-1-[4-((2S)-2-Acetylamino-5-methyl-hexanoyl)-6-oxo-hexahydro-pyrrolo[3,2-b]pyrrole-1-carbonyl]-3-methyl-butyl}-4-dimethylamino-benzamide], the Ki in test [1] and in test [2] was < 5 µM in each case.

For the molecule `COc1ccc(C(=O)N2CC(=O)[C@@H]3[C@H]2CCN3C(=O)[C@H](CC(C)C)NC(=O)c2ccc(N(C)C)cc2)cc1` [Example 66, (3aR,6aS)-4-Dimethylamino-N-{(1S)-1-[4-(4-methoxy-benzoyl)-6-oxo-hexahydro-pyrrolo[3,2-b]pyrrole-1-carbonyl]-3-methyl-butyl}-benzamide], the Ki in test [1] and in test [2] was < 5 µM in each case.

In the case of `CC(C)C[C@H](NC(=O)c1ccc(N(C)C)cc1)C(=O)N1CC[C@@H]2[C@H]1C(=O)CN2C(=O)[C@@H](N)[C@H](C)O` [Example 208, (3aR,6aS)-N-{(1S)-1-[4-((2S,3S)-2-Amino-3-hydroxy-butyryl)-6-oxo-hexahydro-pyrrolo[3,2-b]pyrrole-1-carbonyl]-3-methyl-butyl}-4-dimethylamino-benzamide], the Ki in test [1] and in test [2] was < 5 µM in each case.

Regarding `CC(C)C[C@H](NC(=O)c1ccc(C(C)(C)C)cc1)C(=O)N1CC[C@@H]2[C@H]1C(=O)CN2C(=O)c1cccc(Oc2ccccc2)c1` [Example 24, (3aR,6aS)-4-tert-Butyl-N-{(1S)-3-methyl-1-[6-oxo-4-(3-phenoxy-benzoyl)-hexahydro-pyrrolo[3,2-b]pyrrole-1-carbonyl]-butyl}-benzamide], the Ki in test [1] and in test [2] was < 5 µM in each case.

For the molecule `CC(=O)Nc1ccsc1C(=O)N1CC(=O)[C@@H]2[C@H]1CCN2C(=O)[C@H](CC(C)C)NC(=O)c1ccc(N(C)C)cc1` [Example 165, (3aR,6aS)-N-{(1S)-[4-(3-Acetylamino-thiophene-2-carbonyl)-6-oxo-hexahydro-pyrrolo[3,2-b]pyrrole-1-carbonyl]-3-methyl-butyl}-4-dimethylamino-benzamide], the Ki in test [1] and in test [2] was < 5 µM each time.

Turning to `CC(C)C[C@H](NC(=O)c1ccc(C(C)(C)C)cc1)C(=O)N1CC[C@@H]2[C@H]1C(=O)CN2C(=O)c1ccc2ncsc2c1` [Example 32, (3aR,6aS)-N-{(1S)-1-[4-(Benzothiazole-6-carbonyl)-6-oxo-hexahydro-pyrrolo[3,2-b]pyrrole-1-carbonyl]-3-methyl-butyl}-4-tert-butyl-benzamide], the Ki in test [1] and in test [2] was < 5 µM throughout.

Regarding `CC(C)C[C@H](NC(=O)c1ccc(N(C)C)cc1)C(=O)N1CC[C@@H]2[C@H]1C(=O)CN2C(=O)c1ccc(F)c(F)c1` [Example 116, (3aR,6aS)-N-{(1S)-1-[4-(3,4-Difluoro-benzoyl)-6-oxo-hexahydro-pyrrolo[3,2-b]pyrrole-1-carbonyl]-3-methyl-butyl}-4-dimethylamino-benzamide], the Ki in test [1] and in test [2] was < 5 µM each time.

As for `NCc1cccc(C(=O)N[C@@H](Cc2ccc(O)cc2)C(=O)N2CC[C@@H]3[C@H]2C(=O)CN3C(=O)c2csc3ccccc23)c1` [Example 331, (3aR,6aS)-3-Aminomethyl-N-[(1S)-2-[4-(benzo[b]thiophene-3-carbonyl)-6-oxo-hexahydro-pyrrolo[3,2-b]pyrrole-1-yl]-1-(4-hydroxy-benzyl)-2-oxo-ethyl]-benzamide], the Ki in test [1] and in test [2] was < 5 µM in each case.
